Experimental data as given in US5135912A, “Natriuretic peptides from the pituitary prohormone proopiomelanocortin” (Tosoh Corporation, priority 1988, dated 1992).
Where no end group is shown, it is not given here.

System: rats
Test: Natriuretic and diuretic effect of intravenous bolus injection in anesthetized rats
Format: in vivo, rat
Conditions: 30 to 60 min after minus 30 to 0 min before injection, mean ± SEM
Experimental: Diuretic and natriuretic activity of the peptides of this invention is assayed in male rats of the Sprague-Dawley or Long-Evans strains. Peptide or vehicle (for control purposes) is administered by intravenous bolus injection or by continuous infusion into one renal artery of animals anesthetized for the duration of the experiment, or by intramuscular or subcutaneous injection into animals only briefly anesthetized with ether and subsequently conscious and freely moving until completion of the experiment. Timed urine samples are collected for determination of volume and measurement of sodium and potassium concentration by flame photometry. Details of each method are given in Examples II to IV below.
The natriuretic and diuretic effect of intravenous bolus injection of peptides F15R, G13R and E19R was tested in male Sprague-Dawley or Long-Evans rats weighing 300-400 g. The animals were given Inactin®, 120 mg per kg body weight i.p. under light ether anesthesia. Following placement of a tracheal cannula, the right femoral vein was catheterized for infusion of 5% bovine serum albumin at a dose of 0.4% of body weight and at a rate of 6.0 ml/hour. Subsequently, normal saline was infused for the duration of the experiment at a rate of 2.0 ml/hour. The bladder was exposed through an abdominal incision and catheterized for urine collection. Serial 15-minute urine collections in preweighed vials were begun after a recovery period of 45 minutes. After collection of four control samples, the peptide in 0.1 ml of vehicle was injected into the femoral vein over a period of 1 minute and 6 to 10 further urine samples were collected. Urine volume was determined by weighing and urine sodium and potassium were assayed by flame photometry. All peptides produced natriuresis and diuresis reaching peak levels usually between 30 and 60 minutes after injection. The difference between urine volume and sodium excretion observed from 30 to 60 minutes after and 30 to 0 minutes before peptide administration was calculated for each rat as a measure of activity.

Sequence: GNGDEQPLTPNPR [G13R]
- Change in Sodium Excretion (i.v. bolus 0.100 nmol): 8.39 ± 4.41 μeq/30 minutes
- Change in Urine Volume (i.v. bolus 0.100 nmol): 80.0 ± 29.2 μl/30 minutes
- Change in Sodium Excretion (i.v. bolus 1.00 nmol): 12.48 ± 6.22 μeq/30 minutes
- Change in Urine Volume (i.v. bolus 1.00 nmol): 62.0 ± 17.2 μl/30 minutes
